# Results reported in patent US20190100794A1, “Blood matrix metalloproteinase 9 (MMP9) is a predictive biomarker for cardiac diseases and disorders” (University of Rochester, priority 2017, published 2019).
# What was measured:
# ERK5 in platelets = assay: Platelet activation by FACS P-selectin expression after TRAP6 stimulation, with ERK5 inhibitor pre-incubation; format: cell-based, human; conditions: platelets from healthy volunteers or NSTEMI patients; BIX 02189 0-100 μM, 30 minutes; TRAP6 10 μM, 15 minutes; P<0.05
# Procedure: (FIG. 4A) All patients were given 325 mg aspirin at least 30 minutes prior to blood draw. Platelets were isolated from healthy volunteer subjects (control) or from patients with STEMI or NSTEMI. ERK5 activation was assessed by Western blotting using a phosphor-specific antibody (P-ERK5). A pan-ERK5 antibody was used to detect total ERK5 and the ratio (P-ERK5/ERK5) was used to report ERK5 activity as mean±SEM, n=10-13. *p<0.05 control vs. STEMI, **p=0.01 control vs NSTEMI. The molecular weight is indicated in kiloDaltons (kDa). (FIG. 4B) All patients were given 325-mg aspirin at least 30 minutes before blood draw. […] Platelet activation was assessed by fluorescence-activated cell sorting by P-selectin expression, mean fluorescence intensity (MFI)±SEM, all performed in quadruplicate in each group, n=4. *P<0.05 between NSTEMI/TRAP6 and NSTEMI/TRAP6+BIX 02189 and **P<0.05 control/TRAP6 and control/TRAP6+BIX 02189.
# For each study subject, blood was obtained by a trained medical professional into citrate plasma tubes, then centrifuged in a tabletop centrifuge at 1100 rpm for 15 mins. […] This reaction was then stopped by adding 100 μL of 2% formalin to each reaction, and then quantification of platelet surface P-selectin was made possible using an Accuri Flow Cytometer (BD Biosciences) at 10K events per sample. […] Platelet surface p-selectin was quantified in quadruplicate using the geometric mean. […]
# PAR1 = molecular target: T1, PAR1 (Homo sapiens, UniProt P25116); conditions: triple therapy of DAPT plus vorapaxar, cited from earlier work
# T1 construct: Thrombin-Receptor Antagonist Vorapaxar in Acute Coronary Syndromes (TRACER) study; host or cells: patients of a clinical trial (Tricoci P, et al., 2012, N Engl J Med)
# T1 sequence (P25116 22-425): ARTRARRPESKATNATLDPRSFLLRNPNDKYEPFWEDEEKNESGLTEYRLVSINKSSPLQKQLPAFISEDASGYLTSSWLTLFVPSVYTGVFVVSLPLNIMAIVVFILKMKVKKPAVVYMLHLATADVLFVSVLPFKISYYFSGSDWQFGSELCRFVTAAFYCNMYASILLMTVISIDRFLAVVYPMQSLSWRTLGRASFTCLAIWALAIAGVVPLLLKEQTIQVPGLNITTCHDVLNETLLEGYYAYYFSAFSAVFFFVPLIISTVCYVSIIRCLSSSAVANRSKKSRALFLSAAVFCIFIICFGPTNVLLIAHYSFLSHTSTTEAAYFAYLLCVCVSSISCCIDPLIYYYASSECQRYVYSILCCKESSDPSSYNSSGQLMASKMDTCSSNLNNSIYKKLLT
# [1] = molecular target: T2, platelet cyclooxygenase (COX) (Homo sapiens, UniProt P23219); assay: Plasma TxB2 concentration by ELISA as marker of aspirin inhibition of platelet cyclooxygenase; format: in vivo; conditions: STEMI and NSTEMI patients given 325 mg aspirin at least 30 min before blood draw, versus healthy volunteers not treated with aspirin
# T2 construct: endogenous in cells; plasma TxB2 measured by ELISA
# T2 sequence (P23219 24-599): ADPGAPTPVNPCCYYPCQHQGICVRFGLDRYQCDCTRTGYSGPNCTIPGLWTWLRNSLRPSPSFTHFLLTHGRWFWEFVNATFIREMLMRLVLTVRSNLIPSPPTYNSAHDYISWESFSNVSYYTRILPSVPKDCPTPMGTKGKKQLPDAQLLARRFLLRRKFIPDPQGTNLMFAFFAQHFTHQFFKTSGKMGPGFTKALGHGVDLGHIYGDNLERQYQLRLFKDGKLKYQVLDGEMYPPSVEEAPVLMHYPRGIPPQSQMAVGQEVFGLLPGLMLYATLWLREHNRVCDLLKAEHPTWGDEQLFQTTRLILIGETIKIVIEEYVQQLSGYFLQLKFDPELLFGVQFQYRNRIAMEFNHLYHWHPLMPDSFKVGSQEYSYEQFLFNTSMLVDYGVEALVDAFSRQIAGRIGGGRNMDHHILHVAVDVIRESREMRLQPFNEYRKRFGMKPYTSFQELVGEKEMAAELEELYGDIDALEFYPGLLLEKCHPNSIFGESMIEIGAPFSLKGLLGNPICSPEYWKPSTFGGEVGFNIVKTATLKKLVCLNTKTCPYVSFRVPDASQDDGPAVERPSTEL
# Procedure: Blood was taken from patients immediately upon presentation with STEMI or NSTEMI and compared to healthy volunteer subjects. Each patient had been given 325 mg aspirin at least 30 mins prior to the blood draw. Plasma was isolated and biomarker concentration was evaluated by ELISA. Plasma TxB2 concentration served as a surrogate marker to assess for differences in efficacy of aspirin between groups, comparing this to healthy volunteer subjects (control) not taking aspirin. […] ELISA=Enzyme-Linked Immunosorbant Assay.
# Each patient was treated with 325 mg aspirin in the ambulance, in the ED, or hospital least 30 minutes prior to blood draw.
# Enzyme-linked immunosorbant assays (ELISAs) were conducted according to the manufacturer's instructions using the sandwich ELISA technique. […] The ELISA for plasma thromboxane B2 (cat#501020) was purchased from Cayman Chemicals.
compound,measurement,setting,value
CN(C)Cc1cccc(N/C(=C2\C(=O)Nc3cc(C(=O)N(C)C)ccc32)c2ccccc2)c1 [BIX 02189],"TRAP6-induced platelet activation (P-selectin expression, MFI)",ERK5 in platelets,prevents platelet activation
CCOC(=O)N[C@@H]1CC[C@@H]2[C@@H](C1)C[C@H]1C(=O)O[C@H](C)[C@H]1[C@H]2/C=C/c1ccc(-c2cccc(F)c2)cn1 [vorapaxar],relative reduction in the primary end point,PAR1; nonsignificant,8%
same,bleeding,PAR1,trend toward clinically significant bleeding
CC(=O)Oc1ccccc1C(=O)O [aspirin],plasma TxB2 concentration,[1],decrease
